These compounds were tested against T1, CRBN (Homo sapiens, UniProt Q96SW2) (assay: Competition Assay: MAPPIT-like, competition with trimethoprim-lenalidomide hybrid ligand for binding to CRBN in HEK293T cells). Conditions: protocol and reagents of Example 1; read-out: IC50 Competition.
T1 construct: expressed in transfected cells; host or cells: HEK293T
Format: cell-based
Source text: A bait protein (protein A) is expressed as a fusion protein in which it is genetically fused to an engineered intracellular receptor domain of the leptin receptor, which is itself fused to the extracellular domain of the erythropoietin (Epo) receptor. Binding of Epo ligand to the EpoR component results in activation of receptor-associated intracellular JAK2. However, activated JAK2 cannot activate the leptin receptor to trigger STAT3 binding and its phosphorylation because its tyrosine residues, normally phosphorylated by activated JAK2, have been mutated. Reconstitution of a JAK2 phosphorylatable STAT3 docking site is instead created through interaction of a protein B with protein A, whereby protein B is fused to a cytoplasmic domain of the gp130 receptor (which now harbors appropriate tyrosine resides recognized by the activated JAK2 kinase). Thus, physical interaction of protein A with protein B reconstitutes and Epo triggers JAK2-STAT3 signaling pathway activation. Activation of STAT3 can be monitored by introduction of a STAT3-responsive reporter gene, including a luciferase-encoding gene or a gene encoding a fluorescent marker such as GFP or some other type of fluorescent protein (EGF etc.). In this manner, the MAPPIT assay provides a versatile assay to assess such recombinant protein-protein interactions, or compound- or hybrid ligand-induced protein-protein interactions, in intact cells.
Formation of the complex results in activation of a STAT-responsive luciferase reporter gene. That signal is set to 100% luciferase activity. In a separate sample set up, cells are prepared in the same manner but, in addition, co-incubated with a test compound whose interaction with CRBN is investigated. […] Increasing concentrations of test compound are assessed to determine CRBN binding efficiency as determined in this type of ligand competition experiment in living cells. Specificity of signal inhibition is assessed by a parallel experimental set up in which test compound effect is assessed for inhibition of signal generated by a control gp130 fusion protein (CTRL) that directly binds to the DHFR-fusion protein in the absence of hybrid ligand (i.e. a direct interaction of the proteins).
In more detail, HEK293T cells are cultured in Dulbecco's modified Eagle's medium supplemented with 10% fetal calf serum, incubated at 37° C., 8% CO2. […] Data points represent the average luciferase activity of triplicate samples derived from cells treated with leptin+test compound for the REM2 control (CTRL) or cells treated with leptin+hybrid ligand+test compound (CRBN) relative to leptin (CTRL) or leptin+hybrid ligand (CRBN) only treated samples (the signals obtained in absence of added test compound for both cases is set at 100% of luciferase activity on y-axis). Error bars represent standard deviations. Curves are fit using 4-parameter nonlinear regression in […] PRISM software

Row | SMILES | IC50 [µM]
1 | CC(C)OC1c2ccccc2C(=O)N1C1CCC(=O)NC1=O (stereo not drawn) [3-(1-isopropoxy-3-oxo-isoindolin-2-yl)piperidine-2,6-dione] | 22.9
2 | O=C1CCC(N2Cc3ccc(NCC(=O)NC4CCOCC4)cc3C2=O)C(=O)N1 (stereo not drawn) [Compound C12693, 2-[[2-(2,6-dioxo-3-piperidyl)-3-oxo-isoindolin-5-yl]amino]-N-tetrahydropyran-4-yl-acetamide] | 8.33
3 | Cc1ccc2nnn(C3CCC(=O)NC3=O)c(=O)c2c1 (stereo not drawn) [Compound C16463, 3-(6-methyl-4-oxo-1,2,3-benzotriazin-3-yl)piperidine-2,6-dione] | 2.67
4 | Cc1ccc2c(=O)n(C3CCC(=O)NC3=O)nnc2c1 (stereo not drawn) [Compound C17800, 3-(7-methyl-4-oxo-1,2,3-benzotriazin-3-yl)piperidine-2,6-dione] | 21.9
5 | CN(C)CC(=O)Nc1cccc2c1CN(C1CCC(=O)NC1=O)C2=O (stereo not drawn) [Compound C22586, 2-(dimethylamino)-N-[2-(2,6-dioxo-3-piperidyl)-1-oxo-isoindolin-4-yl]acetamide] | 1.3
6 | Cc1ccc2c(c1)C(=O)N(C1CCC(=O)NC1=O)C2 (stereo not drawn) [Compound C28620, 3-(6-methyl-1-oxo-isoindolin-2-yl)piperidine-2,6-dione] | 0.178
7 | O=C1CCC(N2Cc3ccc(NC(=O)c4ccc5ccccc5n4)cc3C2=O)C(=O)N1 (stereo not drawn) [Compound C80392, N-[2-(2,6-dioxo-3-piperidyl)-3-oxo-isoindolin-5-yl]quinoline-2-carboxamide] | 2.05e-05
8 | O=C1CCC(N2Cc3ccc(NC(=O)c4ccc5cnccc5n4)cc3C2=O)C(=O)N1 (stereo not drawn) [Compound C80393, N-[2-(2,6-dioxo-3-piperidyl)-3-oxo-isoindolin-5-yl]-1,6-naphthyridine-2-carboxamide] | 0.007
9 | O=C1CCC(N2Cc3ccc(NC(=O)C4=C5C=CN=C5N=CC4)cc3C2=O)C(=O)N1 (stereo not drawn) [Compound C80395, N-[2-(2,6-dioxo-3-piperidyl)-3-oxo-isoindolin-5-yl]-5H-pyrrolo[2,3-6]pyridine-4-carboxamide] | 0.88
10 | NC(=O)CNc1ccc2c(c1)C(=O)N(C1CCC(=O)NC1=O)C2 (stereo not drawn) [Compound C84961, 2-[[2-(2,6-dioxo-3-piperidyl)-3-oxo-isoindolin-5-yl]amino]acetamide] | 4.01
11 | O=C1CCC(N2Cc3ccc(NCC(=O)NC4CC4)cc3C2=O)C(=O)N1 (stereo not drawn) [Compound C84963, N-cyclopropyl-2-[[2-(2,6-dioxo-3-piperidyl)-3-oxo-isoindolin-5-yl]amino]acetamide] | 1.21
12 | CN(C)C(=O)CNc1ccc2c(c1)C(=O)N(C1CCC(=O)NC1=O)C2 (stereo not drawn) [Compound C84964, 2-[[2-(2,6-dioxo-3-piperidyl)-3-oxo-isoindolin-5-yl]amino]-N,N-dimethyl-acetamide] | 0.266
13 | O=C1CCC(N2Cc3ccc(NCC(=O)Nc4ccccc4)cc3C2=O)C(=O)N1 (stereo not drawn) [Compound C84965, 2-[[2-(2,6-dioxo-3-piperidyl)-3-oxo-isoindolin-5-yl]amino]-N-phenyl-acetamide] | 0.2
14 | O=C(CNc1ccc2c(c1)C(=O)N(C1CCC(=O)NC1=O)C2)NCc1ccccc1 (stereo not drawn) [Compound C84966, N-benzyl-2-[[2-(2,6-dioxo-3-piperidyl)-3-oxo-isoindolin-5-yl]amino]acetamide] | 0.599
15 | CC(=O)NCC(=O)Nc1ccc2c(c1)C(=O)N(C1CCC(=O)NC1=O)C2 (stereo not drawn) [Compound C84967, 2-acetamido-N-[2-(2,6-dioxo-3-piperidyl)-3-oxo-isoindolin-5-yl]acetamide] | 3.15
16 | O=C1CCC(N2Cc3ccc(N4CCNC4=O)cc3C2=O)C(=O)N1 (stereo not drawn) [Compound C84971, 3-[1-oxo-6-(2-oxoimidazolidin-1-yl)isoindolin-2-yl]piperidine-2,6-dione] | 1.31
17 | O=C1CCC(N2Cc3ccc(NCC(=O)N4CCc5ccccc5C4)cc3C2=O)C(=O)N1 (stereo not drawn) [Compound C95329] | 10.3
18 | O=C1CCC(N2Cc3ccc(NCC(=O)N4Cc5ccccc5C4)cc3C2=O)C(=O)N1 (stereo not drawn) [Compound C95330, 3-[6-[(2-isoindolin-2-yl-2-oxo-ethyl)amino]-1-oxo-isoindolin-2-yl]piperidine-2,6-dione] | 0.03
19 | CN(Cc1cnn(C)c1)C(=O)CNc1ccc2c(c1)C(=O)N(C1CCC(=O)NC1=O)C2 (stereo not drawn) [Compound C95333, 2-[[2-(2,6-dioxo-3-piperidyl)-3-oxo-isoindolin-5-yl]amino]-N-methyl-N-[(1-methylpyrazol-4-yl)methyl]acetamide] | 0.591
20 | CC1Cc2ccccc2N1C(=O)CNc1ccc2c(c1)C(=O)N(C1CCC(=O)NC1=O)C2 (stereo not drawn) [Compound C95336, 3-[6-[[2-(2-methylindolin-1-yl)-2-oxo-ethyl]amino]-1-oxo-isoindolin-2-yl]piperidine-2,6-dione] | 11.9
21 | CN(CC1CC1)C(=O)CNc1ccc2c(c1)C(=O)N(C1CCC(=O)NC1=O)C2 (stereo not drawn) [Compound C95338, N-(cyclopropylmethyl)-2-[[2-(2,6-dioxo-3-piperidyl)-3-oxo-isoindolin-5-yl]amino]-N-methyl-acetamide] | 0.0321
22 | C=CCC1c2ccccc2C(=O)N1C1CCC(=O)NC1=O (stereo not drawn) [Compound C96413, 3-(1-allyl-3-oxo-isoindolin-2-yl)piperidine-2,6-dione] | 10.4
23 | CN(C)c1ccc2c(c1)C(=O)N(C1CCC(=O)NC1=O)C2 (stereo not drawn) [Compound C96622, 3-[6-(dimethylamino)-1-oxo-isoindolin-2-yl]piperidine-2,6-dione] | 0.214
24 | O=C1CCC(Nc2ncc3ccccc3n2)C(=O)N1 (stereo not drawn) [Compound C97402, 3-(quinazolin-2-ylamino)piperidine-2,6-dione] | 6.32
25 | CC(C)(C)OC(=O)CC1c2ccccc2C(=O)N1C1CCC(=O)NC1=O (stereo not drawn) [Compound C98053, t-butyl 2-[2-(2,6-dioxo-3-piperidyl)-3-oxo-isoindolin-1-yl]acetate] | 5.77
26 | O=C1CC=CC(C(=O)NC2CCC(=O)NC2=O)=N1 (stereo not drawn) [Compound C98696, N-(2,6-dioxo-3-piperidyl)-2-oxo-3H-pyridine-6-carboxamide] | 9.34
27 | O=C1CCC(N2Cc3cccc([N+](=O)[O-])c3C2=O)C(=O)N1 (stereo not drawn) [Compound C99884, 3-(7-nitro-1-oxo-isoindolin-2-yl)piperidine-2,6-dione] | 1.37

The compounds below were run against T2, SALL4 (Homo sapiens, UniProt Q96SW2+Q9UJQ4) (assay: Recruitment Assay (MAPPIT-like): SALL4 recruitment, pSEL-SALL4+pMG1-CRBN). Conditions: recruitment of SALL4, protocol of Example 2; read-out: EC50_SALL4.
T2 construct: Full size proteins are fused for each of the target proteins tested; expressed in transfected cells; host or cells: HEK293T
Format: cell-based
Method: In this experimental set-up, cells are transfected with a construct encoding a CRBN-fusion protein and another one encoding a substrate-fusion protein. Test compound activity is assessed with increasing concentrations of test compounds (dose-response studies) to monitor the ability to promote CRBN-ligand-induced protein interaction.
Full size proteins are fused for each of the target proteins tested, except in the case of IKZF1 where isoform 7 is used, and BRD4, where isoform 3 is applied. For the study, the following construct combinations are used: IKZF1 recruitment: pSEL-CRBN+pMG1-IKZF1(isoform 7); ASS1 recruitment: pSEL-CRBN+pMG1-ASS1; SALL4 recruitment: pSEL-SALL4+pMG1-CRBN; DHFR recruitment: pCLG-DHFR+pMG1-CRBN; ESR1 recruitment: pSEL-CRBN+pMG1-ESR1; BRD4 recruitment: pSEL-CRBN+pMG1-BRD4(isoform 3). Cells are treated with erythropoietin (Epo; where pSEL-type receptor fusions constructs are used) or leptin (in the case pCLG-type receptor fusion constructs are applied) without or with the indicated dose of test compound at 24 hours after transfection. Luciferase activity is measured 24 hours after test compound treatment using the Luciferase Assay System kit (PROMEGA, Madison, Wis.) with an Ensight plate reader (PERKIN ELMER LIFE SCIENCES, Waltham, Mass.). Data points depict fold induction of the average luciferase activity of triplicate samples from Epo or leptin+test compound treated cells versus Epo or leptin only treated cells. Error bars represent standard deviations. Curves are fit using 4-parameter nonlinear regression in […] PRISM software.

Row | SMILES | EC50 [µM]
28 | CC(C)OC1c2ccccc2C(=O)N1C1CCC(=O)NC1=O (stereo not drawn) [3-(1-isopropoxy-3-oxo-isoindolin-2-yl)piperidine-2,6-dione] | 2.7
29 | O=C1CCC(N2C(=O)c3ccccc3C2NCc2ccccc2)C(=O)N1 (stereo not drawn) [Compound C10239, 3-[1-(benzylamino)-3-oxo-isoindolin-2-yl]piperidine-2,6-dione] | 1.16
30 | O=C1CCC(N2Cc3ccc(NCC(=O)NC4CCOCC4)cc3C2=O)C(=O)N1 (stereo not drawn) [Compound C12693, 2-[[2-(2,6-dioxo-3-piperidyl)-3-oxo-isoindolin-5-yl]amino]-N-tetrahydropyran-4-yl-acetamide] | 2.62
31 | O=C1CCC(N2Cc3ccc(NCC(=O)NC4CCOC4)cc3C2=O)C(=O)N1 (stereo not drawn) [Compound C12694, 2-[[2-(2,6-dioxo-3-piperidyl)-3-oxo-isoindolin-5-yl]amino]-N-tetrahydrofuran-3-yl-acetamide] | 3.43
32 | Cc1ccc2nnn(C3CCC(=O)NC3=O)c(=O)c2c1 (stereo not drawn) [Compound C16463, 3-(6-methyl-4-oxo-1,2,3-benzotriazin-3-yl)piperidine-2,6-dione] | 0.772
33 | Cc1ccc2c(=O)n(C3CCC(=O)NC3=O)nnc2c1 (stereo not drawn) [Compound C17800, 3-(7-methyl-4-oxo-1,2,3-benzotriazin-3-yl)piperidine-2,6-dione] | 0.904
34 | CN(C)CC(=O)Nc1cccc2c1CN(C1CCC(=O)NC1=O)C2=O (stereo not drawn) [Compound C22586, 2-(dimethylamino)-N-[2-(2,6-dioxo-3-piperidyl)-1-oxo-isoindolin-4-yl]acetamide] | 1.14
35 | Cc1ccc2c(c1)C(=O)N(C1CCC(=O)NC1=O)C2 (stereo not drawn) [Compound C28620, 3-(6-methyl-1-oxo-isoindolin-2-yl)piperidine-2,6-dione] | 0.27
36 | O=C1CCC(N2Cc3cc(Nc4ncc5[nH]cnc5n4)ccc3C2=O)C(=O)N1 (stereo not drawn) [Compound C80376, 3-[1-oxo-5-(7H-purin-2-ylamino)isoindolin-2-yl]piperidine-2,6-dione] | 0.559
